Results: patent US9326506B2, “Preparation method, agricultural composition and applications of natural brassinolide analogs” (CHENGDU NEWSUN CROPSCIENCE CO., LTD, priority 2012, dated 2016)

Tested on: rice
Test: Low temperature assay on rice seedlings
Format: in vivo
Description: According to a low temperature assay, we measured parameters including plant height, number of leaf, area of leaf, number of tiller, weight of root at low temperature to completely determine effects of the natural brassinolide analogues on the resistance to low temperature of a plant.
The natural brassinolide analogues, BR1, BR2, BR3, BR4, BR5 and BR6, used herein, were those prepared by the method of Example 1. Respectively the analogues were dissolved into 95% (V/V) ethanol solution, and then diluted with pure water to 1 mg/L, 0.1 mg/L, 0.01 mg/L, 0.001 mg/L and 0.0001 mg/L. In addition, pure water was used as a control.
After rice seeds were disinfected by using 5% sodium hypochlorite solution treatment, they were rinsed with distilled water until their pH>7, placed into a petri dish in a dark incubator, and cultured by using water at 30° C.±2° C. for 9 days. Then respectively the nine-day-old etiolated seedlings of rice were immersed in the above solutions containing different concentrations of the natural brassinolide analogues or pure water, and cultured at the temperature of 1° C., 2° C., 3° C., 4° C. and 5° C. for 24 hr. The parameters including plant height, area of leaf and weight of root after 3, 6, 9 and 12 days and number of leaf and number of tiller after 12 days were measured.

## C=C(C(C)C)[C@@H](O)[C@H](O)[C@@H](C)[C@H]1CCC2C3COC(=O)C4C[C@H](O)[C@H](O)C[C@]4(C)C3CC[C@@]21C (stereo partly shown) [BR3]
0.01 mg/l, 3 °C, 9 days
  Height: 7.5 cm
  Weight of root: 2.9 g
0.01 mg/l, 3 °C, 12 days
  Area of leaf: 13.2 cm^2
  Height: 7.8 cm
  Number of leaf: 3
  Number of tiller: 2
  Weight of root: 2.9 g
0.01 mg/l, 4 °C, 3 days
  Area of leaf: 10.8 cm^2
  Height: 7.1 cm
  Weight of root: 2.5 g
0.01 mg/l, 4 °C, 6 days
  Area of leaf: 12.4 cm^2
  Height: 7.4 cm
  Weight of root: 2.6 g
0.01 mg/l, 4 °C, 9 days
  Area of leaf: 13 cm^2
  Height: 7.7 cm
  Weight of root: 2.9 g
0.01 mg/l, 4 °C, 12 days
  Area of leaf: 13.5 cm^2
  Height: 7.8 cm
  Number of leaf: 3
  Number of tiller: 2
  Weight of root: 3.0 g
0.01 mg/l, 5 °C, 3 days
  Area of leaf: 10.3 cm^2
  Height: 7.4 cm
  Weight of root: 2.8 g
0.01 mg/l, 5 °C, 6 days
  Area of leaf: 13.1 cm^2
  Height: 7.6 cm
  Weight of root: 3.0 g
0.01 mg/l, 5 °C, 9 days
  Area of leaf: 16.4 cm^2
  Height: 7.8 cm
  Weight of root: 3.4 g
0.01 mg/l, 5 °C, 12 days
  Area of leaf: 17 cm^2
  Height: 8.2 cm
  Number of leaf: 4
  Number of tiller: 3
  Weight of root: 3.9 g
0.1 mg/l, 1 °C, 3 days
  Area of leaf: 10.1 cm^2
  Height: 7.1 cm
  Weight of root: 2.8 g
0.1 mg/l, 1 °C, 6 days
  Area of leaf: 11 cm^2
  Height: 7.2 cm
  Weight of root: 2.9 g
0.1 mg/l, 1 °C, 9 days
  Area of leaf: 12.1 cm^2
  Height: 7.3 cm
  Weight of root: 3.4 g
0.1 mg/l, 1 °C, 12 days
  Area of leaf: 13.1 cm^2
  Height: 7.4 cm
  Number of leaf: 3
  Number of tiller: 3
  Weight of root: 3.6 g
0.1 mg/l, 2 °C, 3 days
  Area of leaf: 10.4 cm^2
  Height: 7.1 cm
  Weight of root: 2.8 g
0.1 mg/l, 2 °C, 6 days
  Area of leaf: 11.2 cm^2
  Height: 7.3 cm
  Weight of root: 3.0 g
0.1 mg/l, 2 °C, 9 days
  Area of leaf: 12.6 cm^2
  Height: 7.3 cm
  Weight of root: 3 g
0.1 mg/l, 2 °C, 12 days
  Area of leaf: 13.2 cm^2
  Height: 7.4 cm
  Number of leaf: 3
  Number of tiller: 3
  Weight of root: 3.2 g
0.1 mg/l, 3 °C, 3 days
  Area of leaf: 10.5 cm^2
  Height: 7.3 cm
  Weight of root: 2.5 g
0.1 mg/l, 3 °C, 6 days
  Area of leaf: 12 cm^2
  Height: 7.4 cm
  Weight of root: 2.7 g
0.1 mg/l, 3 °C, 9 days
  Area of leaf: 12.1 cm^2
  Height: 7.8 cm
  Weight of root: 2.7 g
0.1 mg/l, 3 °C, 12 days
  Area of leaf: 13.4 cm^2
  Height: 7.9 cm
  Number of leaf: 3
  Number of tiller: 2
  Weight of root: 2.9 g
0.1 mg/l, 4 °C, 3 days
  Area of leaf: 10.8 cm^2
  Height: 7.4 cm
  Weight of root: 2.5 g
0.1 mg/l, 4 °C, 6 days
  Area of leaf: 12 cm^2
  Height: 7.4 cm
  Weight of root: 2.7 g
0.1 mg/l, 4 °C, 9 days
  Area of leaf: 13.4 cm^2
  Height: 7.8 cm
  Weight of root: 2.9 g
0.1 mg/l, 4 °C, 12 days
  Area of leaf: 13.4 cm^2
  Height: 8.1 cm
  Number of leaf: 3
  Number of tiller: 2
  Weight of root: 3.1 g
0.1 mg/l, 5 °C, 3 days
  Area of leaf: 11 cm^2
  Height: 7.5 cm
  Weight of root: 2.9 g
0.1 mg/l, 5 °C, 6 days
  Area of leaf: 12.1 cm^2
  Height: 7.5 cm
  Weight of root: 3.2 g
0.1 mg/l, 5 °C, 9 days
  Area of leaf: 16.2 cm^2
  Height: 8 cm
  Weight of root: 3.5 g
0.1 mg/l, 5 °C, 12 days
  Area of leaf: 17.9 cm^2
  Height: 8.1 cm
  Number of leaf: 3
  Number of tiller: 2
  Weight of root: 4.1 g
1 mg/l, 1 °C, 3 days
  Area of leaf: 10 cm^2
  Height: 7.2 cm
  Weight of root: 2.6 g
1 mg/l, 1 °C, 6 days
  Area of leaf: 11 cm^2
  Height: 7.2 cm
  Weight of root: 3.1 g
1 mg/l, 1 °C, 9 days
  Area of leaf: 12.4 cm^2
  Height: 7.3 cm
  Weight of root: 3.1 g
1 mg/l, 1 °C, 12 days
  Area of leaf: 13 cm^2
  Height: 7.9 cm
  Number of leaf: 3
  Number of tiller: 3
  Weight of root: 3.7 g
1 mg/l, 2 °C, 3 days
  Area of leaf: 10.2 cm^2
  Height: 7.2 cm
  Weight of root: 2.6 g
1 mg/l, 2 °C, 6 days
  Area of leaf: 11.7 cm^2
  Height: 7.2 cm
  Weight of root: 3.0 g
1 mg/l, 2 °C, 9 days
  Area of leaf: 12 cm^2
  Height: 7.4 cm
  Weight of root: 3.2 g
1 mg/l, 2 °C, 12 days
  Area of leaf: 13 cm^2
  Height: 8 cm
  Number of leaf: 3
  Number of tiller: 3
  Weight of root: 3.7 g
1 mg/l, 3 °C, 3 days
  Area of leaf: 10.4 cm^2
  Height: 7.4 cm
  Weight of root: 2.5 g
1 mg/l, 3 °C, 6 days
  Area of leaf: 12 cm^2
  Height: 7.5 cm
  Weight of root: 2.6 g
1 mg/l, 3 °C, 9 days
  Area of leaf: 12 cm^2
  Height: 7.7 cm
  Weight of root: 2.7 g
1 mg/l, 3 °C, 12 days
  Area of leaf: 13.2 cm^2
  Height: 8.1 cm
  Number of leaf: 3
  Number of tiller: 2
  Weight of root: 2.9 g
1 mg/l, 4 °C, 3 days
  Area of leaf: 10.9 cm^2
  Height: 7.4 cm
  Weight of root: 2.5 g
1 mg/l, 4 °C, 6 days
  Area of leaf: 12 cm^2
  Height: 7.5 cm
  Weight of root: 2.7 g
1 mg/l, 4 °C, 9 days
  Area of leaf: 13.2 cm^2
  Height: 7.8 cm
  Weight of root: 3.0 g
1 mg/l, 4 °C, 12 days
  Area of leaf: 14 cm^2
  Height: 8.2 cm
  Number of leaf: 3
  Number of tiller: 2
  Weight of root: 3.2 g
1 mg/l, 5 °C, 3 days
  Area of leaf: 11.1 cm^2
  Height: 7.4 cm
  Weight of root: 2.9 g
1 mg/l, 5 °C, 6 days
  Area of leaf: 13.1 cm^2
  Height: 7.5 cm
  Weight of root: 3.5 g
1 mg/l, 5 °C, 9 days
  Area of leaf: 18 cm^2
  Height: 8.2 cm
  Weight of root: 3.7 g
1 mg/l, 5 °C, 12 days
  Area of leaf: 20 cm^2
  Height: 8.3 cm
  Number of leaf: 3
  Number of tiller: 2
  Weight of root: 4.5 g
